Results reported in ChEMBL document CHEMBL3616407, “The imidazo[1,2-a]pyridine ring system as a scaffold for potent dual phosphoinositide-3-kinase (PI3K)/mammalian target of rapamycin (mTOR) inhibitors” (Bioorg Med Chem Lett, 2015).

What was measured:
Type in all cases: ADME, organism-based
Settings in all cases: in vivo
[1] = Volume of distribution in iv dosed rat
Plasma = test: Unbound plasma concentration in mouse
[2] = AUC in rat at 2 mg/kg, po
[3] = Oral bioavailability in rat at 2 mg/kg

Vd [1]: 4.2 L/kg
Cp(f) (Plasma): 84 nM
AUC [2]: 640 ng·h/mL
bioavailability [3]: 51%
Structure (SMILES): COc1ncc(Nc2nc3ccc(C(C)(C)O)cn3c2-c2nc(C)nc(N)n2)cc1F
